Test systems include COG-LL-317; KASUMI-2; NALM-6.
What all share (assay): selective drug sensitivity score (sDSS, relative to normal bone marrow) (sDSS (score)); higher = more potent and effective on the cell line relative to normal bone marrow cells
Common to all, as to settings: 72 h
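Further: ALL cell lines in 384-well plates, five doses spanning 10,000-fold, each plate scaled between vehicle and 100 µmol/L benzalkonium chloride controls, sDSS an adapted area-under-curve metric.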

For `COc1ccccc1S(=O)(=O)Nc1ccc2c(c1)CN(C)C(=O)N2` [PFI-1] (top concentration 30000 nM), the “selective drug sensitivity score” value with COG-LL-317 is 2.5; in the test with KASUMI-2, 2.4; in the test with NALM-6, 1.7.
Turning to `N#CCNC(=O)c1ccc(-c2ccnc(Nc3ccc(N4CCOCC4)cc3)n2)cc1` [Momelotinib] (top concentration 10000 nM), the “selective drug sensitivity score” value was -5.32 with COG-LL-317, -5.82 in the test with KASUMI-2 and -0.32 in the test on NALM-6.
For `Sc1ncnc2nc[nH]c12` [Mercaptopurine] (top concentration 10000 nM), in that order: 23.7, 12.4 and 9.1.
On to `CCn1c(C(=O)N(C2CC2)C2CC2)cc2c3c(ncn3C)c(Nc3cc(C)n(C)n3)nc21` (top concentration 10000 nM), for which the “selective drug sensitivity score” value with COG-LL-317, with KASUMI-2 and in the test on NALM-6 was -4.36 throughout.
For the compound `Cc1nc(-c2cn3c(n2)-c2ccc(-c4cnn(C(C)(C)C(N)=O)c4)cc2OCC3)n(C(C)C)n1` [Taselisib] (top concentration 1000 nM), the “selective drug sensitivity score” value in the test with COG-LL-317 worked out at 0.8; in the test on KASUMI-2, 4; in the test with NALM-6, 9.5.
As for `O=C(Nc1cc(Oc2cc(F)c(NC(=O)C3(C(=O)Nc4ccc(F)cc4)CC3)cc2F)ccn1)C1CC1` [Altiratinib] (top concentration 10000 nM), the “selective drug sensitivity score” value in the test with COG-LL-317 was -0.46; with KASUMI-2, -0.66; in the test on NALM-6, 1.34.
`Nc1ncn([C@@H]2O[C@H](CO)[C@@H](O)[C@H]2O)c(=O)n1` [Azacitidine] (top concentration 10000 nM): the “selective drug sensitivity score” value in the test with COG-LL-317 was 7.74; with KASUMI-2, -0.36; with NALM-6, 3.34.
The matching figures for `CC(C)c1c(C(=O)Nc2ccccc2)c(-c2ccccc2)c(-c2ccc(F)cc2)n1CC[C@@H](O)C[C@@H](O)CC(=O)O` [Atorvastatin] (top concentration 10000 nM): 8, -3.7 and 1.4.
In the case of `CC1(C)CC[C@]2(NC(=O)C(C)(F)F)CC[C@]3(C)[C@H](C(=O)C=C4[C@@]5(C)C=C(C#N)C(=O)C(C)(C)[C@@H]5CC[C@]43C)[C@@H]2C1` [Omaveloxolone] (top concentration 10000 nM), the “selective drug sensitivity score” value with COG-LL-317 amounted to 4.88; in the test with KASUMI-2, 6.38; in the test with NALM-6, 2.58.
`Cn1cnc2c(F)c(Nc3ccc(Br)cc3F)c(C(=O)NOCCO)cc21` [Binimetinib] (top concentration 1000 nM): the figures for the “selective drug sensitivity score” value in the test on COG-LL-317, with KASUMI-2 and in the test with NALM-6 were -2.12, -2.22 and 5.78, respectively.
On to `CCN1C(=O)CNc2ncc(-c3ccc(-c4nc[nH]n4)nc3C)nc21` [CC-115] (top concentration 10000 nM), for which the results for the “selective drug sensitivity score” value in the test on COG-LL-317, in the test on KASUMI-2 and in the test with NALM-6 were 0.54, 5.74 and 1.24, respectively.
Regarding `COc1ccc(Cn2ccc3ccc(C(=O)NO)cc32)cc1` (top concentration 10000 nM), the “selective drug sensitivity score” value in the test with COG-LL-317 was 13.7; in the test with KASUMI-2, -1.06; in the test with NALM-6, 1.54.
As for `CCCCc1nc2cc(/C=C/C(=O)NO)ccc2n1CCN(CC)CC` [Pracinostat] (top concentration 10000 nM), the results for the “selective drug sensitivity score” value in the test with COG-LL-317, in the test on KASUMI-2 and with NALM-6 were 3.88, 12.5 and 2.78, respectively.
Consider `Nc1nc(Cl)nc2c1ncn2[C@@H]1O[C@H](CO)[C@@H](O)[C@@H]1F` [Clofarabine] (top concentration 10000 nM), for which the “selective drug sensitivity score” value with COG-LL-317 stood at 7.1; in the test on KASUMI-2 it was 8.3; in the test with NALM-6, 2.1.
The matching figures for `CCN(CC)Cc1ccc2cc(COC(=O)Nc3ccc(C(=O)NO)cc3)ccc2c1` [Givinostat] (top concentration 1000 nM): 4.1, 10.6 and 1.2.

(Values after the supplement of paper PMC8967900.)
